Source: patent US20220280515A1, “Ophthalmic Composition for Promoting Tear Secretion” (Rohto Pharmaceutical Co., Ltd., priority 2019, published 2022)
Where a name gives a salt, the structure may show the parent alone.

Assays:
normal rabbits = test: Tear secretion promoting action by single ophthalmic administration, Schirmer's test paper, normal rabbits; type: in vivo, Japanese white rabbits; conditions: 0.05% solution in PBS, 50 μL/eye single instillation, 15 minutes later, Student's t test
Method: The tear secretion promoting action of delgocitinib was evaluated using normal rabbits. Delgocitinib was dissolved and stirred in PBS (Kohjin Bio Co., Ltd.) to prepare a 0.05% delgocitinib solution. Male Japanese white rabbits (Oriental Yeast Co., Ltd.) were placed in retention tubes, and the PBS or the 0.05% delgocitinib solution was instilled at a dose of […]. Fifteen minutes later, a Schirmer's test paper was inserted into conjunctival sac on the corner of the eye. One minute later, the test paper was pulled out, and the length of the wet part of the test paper was measured, which was used as a tear volume.

normal mice = test: Tear secretion promoting action by single ophthalmic administration, phenol red thread, normal mice; type: in vivo, C57BL/6J mice; conditions: 3 μL/eye single instillation, 15 minutes later
Method: The tear secretion promoting action of delgocitinib was evaluated using normal mice. Delgocitinib was dissolved and stirred in PBS (Kohjin Bio Co., Ltd.) to prepare delgocitinib solutions at each concentration (0.0125%, 0.05%, and 0.2%). Female C57BL/6J mice (Japan SLC, Inc.) were retained, and the PBS or the delgocitinib solutions at each concentration were instilled at a dose of 3 μL/eye. Fifteen minutes later, a phenol red thread (ZONE-QUICK, AYUMI Pharmaceutical Corporation) was inserted into conjunctival sac on the corner of the eye. Fifteen seconds later, the phenol red thread was pulled out, the length of the wet part of the phenol red thread was measured, and this measured value was used as the tear volume.

normal rats = test: Tear secretion promoting action by single ophthalmic administration, Schirmer's test paper, normal rats; type: in vivo, Sprague-Dawley (SD) rats; conditions: 5 μL/eye single instillation (DIQUAS 3%, 3% pilocarpine, 0.05% delgocitinib), 15 minutes later, Mann-whitney U test
Method: (§1) The tear secretion promoting action of delgocitinib was evaluated using normal rats and lacrimal gland excision rats.
(§2) As a test substance, a 0.05% delgocitinib solution (delgocitinib as the active ingredient and sodium chloride, potassium chloride, sodium hydroxide, boric acid, and chlorhexidine gluconate as additives were combined, dissolved and stirred in purified water) was prepared. As a control substance, pilocarpine hydrochloride (Tokyo Chemical Industry Co., Ltd.) was dissolved and stirred in saline (OTSUKA NORMAL SALINE, Otsuka Pharmaceutical Factory, Inc.) to prepare a 3% pilocarpine solution.
(§3) Into normal male Sprague-Dawley (SD) rats (Japan SLC, Inc.) and SD rats whose main and accessory lacrimal glands had been excised 1 week earlier, saline, the DIQUAS ophthalmic solution 3% (Santen Pharmaceutical Co., Ltd.), the 3% pilocarpine solution, or the 0.05% delgocitinib solution was instilled at a dose of 5 μL/eye. Ten minutes later, anesthesia was induced using somnopentyl (Kyoritsu Seiyaku Corporation), and another 5 minutes later, a Schirmer's test paper was inserted into conjunctival sac on the corner of the eye. One minute later, the test paper was pulled out, and the length of the wet part of the test paper was measured, and this measured value was used as a tear volume.

[1] = tested on: lacrimal gland excised rats; test: Tear secretion promoting action by single ophthalmic administration, Schirmer's test paper, lacrimal gland excised rats; type: in vivo, Sprague-Dawley (SD) rats; conditions: rats with main and accessory lacrimal glands excised 1 week earlier; 5 μL/eye single instillation (DIQUAS 3%, 3% pilocarpine, 0.05% delgocitinib); 15 minutes later; Mann-whitney U test
Method: as §1, §2, §3

[2] = tested on: lacrimal gland excised rats; test: Tear volume increasing action by repeated ophthalmic administration, lacrimal gland excised rats (dry eye model); type: in vivo, Sprague-Dawley (SD) rats; conditions: main lacrimal gland excised rats; each concentration (0.0125%, 0.05%, 0.2%), 5 μL/eye four times a day, four weeks; Steel test
Method: The tear secretion volume increasing action of delgocitinib was evaluated using lacrimal gland excised rats as a dry eye model. Delgocitinib was dissolved and stirred in PBS (Kohjin Bio Co., Ltd.) to prepare delgocitinib solutions (0.0125%, 0.05%, and 0.2%) at each concentration. Into normal male Sprague-Dawley (SD) rats (Japan SLC, Inc.) and SD rats whose main lacrimal gland had been excised 1 week earlier, the PBS or the delgocitinib solutions at each concentration were repeatedly instilled four times a day at a dose of 5 μL/eye. Four weeks after the start of ophthalmic instillation, the PBS or the delgocitinib solutions at each concentration were instilled at a dose of 5 μL/eye, anesthesia was induced using somnopentyl (Kyoritsu Seiyaku Corporation) 10 minutes later, and another 5 minutes later, a Schirmer's test paper was inserted into conjunctival sac on the corner of the eye. One minute later, the test paper was pulled out, and the length of the wet part of the test paper was measured, and this measured value was used as a tear volume.

[3] = tested on: lacrimal gland excised rats; test: Action of ameliorating keratoconjunctival epithelial disorders by repeated ophthalmic administration, fluorescein staining score, lacrimal gland excised rats (dry eye model); type: in vivo, SD rats; conditions: main lacrimal gland excised rats; each concentration (0.0125%, 0.05%, 0.2%), 5 μL/eye four times a day, four weeks; Steel test
Method: The action of ameliorating keratoconjunctival epithelial disorders of delgocitinib was evaluated using rats with lacrimal gland excision used as a dry eye model. Fluorescein sodium salt (Sigma-Aldrich Japan) was dissolved in OTSUKA NORMAL SALINE (Otsuka Pharmaceutical Factory, Inc.) to prepare a 10 mg/mL fluorescein staining solution. Delgocitinib was dissolved and stirred in PBS (Kohjin Bio Co., Ltd.) to prepare delgocitinib solutions at each concentration (0.0125%, 0.05%, and 0.2%). Into male SD rats (Japan SLC, Inc.) whose main lacrimal gland had been excised 1 week earlier, the PBS or the delgocitinib solutions at each concentration were repeatedly instilled four times a day at a dose of 5 μL/eye. Four weeks after the start of ophthalmic instillation, the 10 mg/mL fluorescein staining solution was instilled at a dose of 1 μL/eye. After induction of anesthesia with an ISOFLURANE inhalation solution (Pfizer Japan Inc.), a photograph was taken with a fluorescence microscope (Leica Microsystems). The cornea captured in the photograph was divided into four sections, the staining score of each section was scored on a scale of 0 to 5, and the total score of four sections was used as the corneal epithelial disorder score for the eye.

dry eye model of rats = conditions: reported in Non Patent Literature 1; cited from earlier work

SMILES: C[C@H]1CN(C(=O)CC#N)[C@]12CCN(c1ncnc3[nH]ccc13)C2 [delgocitinib, 3-[(3S,4R)-3-methyl-6-(7H-pyrrolo[2,3-d]pyrimidin-4-yl)-1,6-diazaspiro[3.4]octan-1-yl]-3-oxopropanenitrile]
- tear volume (length of the wet part of Schirmer's test paper) compared with the PBS group (normal rabbits): significantly increased
- tear volume (length of the wet part of phenol red thread) compared with the PBS group (normal mice; 0.05% solution, Dunnett's test): significant increase
- tear volume (length of the wet part of phenol red thread) compared with the PBS group (normal mice; 0.2% solution, Dunnett's test): significant increase
- tear volume (length of the wet part of phenol red thread) compared with the PBS group (normal mice; each concentration (0.0125%, 0.05%, 0.2%)): increased
- tear volume (length of the wet part of Schirmer's test paper) compared with the saline group (normal rats): significantly increased
- tear volume (length of the wet part of Schirmer's test paper) compared with the saline group [1]: significantly increased
- tear volume (length of the wet part of Schirmer's test paper) compared with the PBS group [2]: significantly increased
- corneal epithelial disorder score (fluorescein staining, total of four sections each 0 to 5) compared with the PBS group [3]: significantly decreased

SMILES: O=c1ccn([C@@H]2O[C@H](COP(=O)(O)OP(=O)(O)OP(=O)(O)OP(=O)(O)OC[C@H]3O[C@@H](n4ccc(=O)[nH]c4=O)[C@H](O)[C@@H]3O)[C@@H](O)[C@H]2O)c(=O)[nH]1 [diquafosol sodium]
- corneal epithelial disorders (dry eye model of rats): ameliorated corneal epithelial disorders
- secretion of tear (dry eye model of rats): promoted secretion of tear

SMILES: CC[C@@H]1C(=O)OC[C@@H]1Cc1cncn1C [pilocarpine, pilocarpine hydrochloride]
- tear volume (length of the wet part of Schirmer's test paper) compared with the saline group (normal rats): significantly increased
- tear volume (length of the wet part of Schirmer's test paper) compared with the saline group [1]: significantly increased only in the DIQUAS ophthalmic solution 3% group and the 0.05% delgocitinib solution group
